Assay [1] deals with T1, kappa opioid receptor (Homo sapiens, UniProt P41145).
T1 construct: grown in complete Ham's F-12 medium
Kind of assay: Invitro KOR agonistic activity, cAMP based functional assay. The format is cell-based.

For assay [2], the target named is T2, kappa opioid receptor (Mus musculus, UniProt P33534).
T2 construct: from tissue; host or cells: mouse vas deferens (male Swiss Albino mice)
Kind of assay: Ex-vivo KOR agonistic activity, electrically stimulated mouse vas deferens (MVD) model. The method, then: a) Ex-Vivo KOR Agonistic Activity Testing, Using Electrically Stimulated Mouse Vas Deferens (MVD) Model:
Ex-vivo, the kappa opioid receptor agonistic activity of test compounds were tested on the electrically stimulated mouse vas deferens (MVD) preparations (Henderson et al., Br. J. Pharmacol., 46, 764-766, 1972; Portoghese et al., Life Sci. 36, 801-805, 1985) and IC50 were determined. In general, vas deferentia were taken from male Swiss Albino mice (30-40 g) and suspended in 8 ml organ baths, at 31° C., containing modified Krebs-Henseleit solution, without magnesium sulphate. Each vas deferens was equilibrated for 45 min at 2.6 mN tension and then stimulated at supramaximal voltage with five 1 ms pulses, at a frequency of 0.1 Hz. Concentration-response curves were determined by cumulative dosing. Inhibitory Concentration, 50% (IC50) values were determined by Sigmoidal dose-response (variable slope) equation, using Prizm v 6.01. The kappa opioid receptor specificity was determined by rightward shift in concentration-response curves in presence of 1 nM norbinaltorphimine (norBNI), a selective kappa opioid receptor antagonist.

[3] abbreviates: cAMP direct ELISA, forskolin 20 μM, agonist 20 minutes, read-out: In-vitro EC50.
Where [4] appears, read: electrically stimulated mouse vas deferens preparation, cumulative dosing, read-out: Ex-vivo IC50.

Where two headings read alike, the source gives them in different places.

For orientation: EC50 means the concentration needed to bring the measured effect to its halfway point. What is called IC50 is the concentration at which inhibition is half-maximal.

T1 sequence (P41145 whole entry): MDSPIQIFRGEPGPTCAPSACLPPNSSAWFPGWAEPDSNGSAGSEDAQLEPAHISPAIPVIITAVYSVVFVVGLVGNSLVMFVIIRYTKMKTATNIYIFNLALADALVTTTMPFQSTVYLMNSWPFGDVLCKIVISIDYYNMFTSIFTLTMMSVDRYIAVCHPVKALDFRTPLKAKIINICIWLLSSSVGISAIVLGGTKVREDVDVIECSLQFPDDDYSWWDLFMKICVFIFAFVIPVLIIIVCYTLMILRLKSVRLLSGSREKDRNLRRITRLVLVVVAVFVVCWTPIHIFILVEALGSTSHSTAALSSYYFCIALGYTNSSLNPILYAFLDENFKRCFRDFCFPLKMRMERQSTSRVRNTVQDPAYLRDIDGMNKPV
T2 sequence (P33534 whole entry): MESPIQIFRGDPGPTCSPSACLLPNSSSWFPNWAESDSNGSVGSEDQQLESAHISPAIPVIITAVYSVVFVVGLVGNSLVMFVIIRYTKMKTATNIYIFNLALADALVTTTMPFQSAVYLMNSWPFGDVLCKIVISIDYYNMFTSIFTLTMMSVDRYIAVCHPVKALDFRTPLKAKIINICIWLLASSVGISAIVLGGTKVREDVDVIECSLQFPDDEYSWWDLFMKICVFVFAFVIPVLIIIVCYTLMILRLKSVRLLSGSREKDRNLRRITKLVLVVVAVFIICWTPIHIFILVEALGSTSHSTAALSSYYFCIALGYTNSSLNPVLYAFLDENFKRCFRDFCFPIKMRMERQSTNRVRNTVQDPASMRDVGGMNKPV

As to `CN(C(=O)COc1ccc(NS(C)(=O)=O)c2ncccc12)[C@H](CN1CC[C@H](O)C1)c1cccc(OCC(=O)O)c1` [Compound 51], the EC50 in assay [1] (setting [3]) stood at 0.11 nM. Further, the half-inhibitory concentration (IC50) in assay [2] (setting [4]) amounted to 16 nM.
The like results for “N-((S)-2-((S)-3-hydroxypyrrolidin-1-yl)-1-phenylethyl)- N-methyl-2-((8-sulfonamido)quinolin-5-yloxy)acetamide [Compound 36]” were, in that order, 1.12 nM and 7.8 nM.
Compound `CN(C(=O)COc1ccc2c(c1)OCC2)[C@H](CN1CC[C@H](O)C1)c1ccccc1` [Compound 18, 2-((2,3-dihydrobenzofuran-6-yl)oxy)-N-((S)-2-((S)-3-hydroxypyrrolidin-1-yl)-1-phenylethyl)-N-methylacetamide] gave an EC50 in assay [1] of 0.07 nM. The compound also gave an IC50 in assay [2] of 8.2 nM.
For `CN(C)c1cccc([C@@H](CN2CC[C@H](O)C2)N(C)C(=O)COc2ccc(NS(C)(=O)=O)c3ncccc23)c1` [Compound 47, N-((S)-1-(3-dimethylaminophenyl)-2-((S)-3-hydroxypyrrolidin-1-yl)ethyl)-N-methyl-2-((8-(methylsulfonamido)quinolin-5-yl)oxy) acetamide] the same measures were 0.691 nM and 88 nM.
The like results for `CN(C(=O)COc1ccc2ccoc2c1)[C@H](CN1CC[C@H](O)C1)c1ccccc1` [Compound 17, 2-(benzofuran-6-yloxy)-N-((S)-2-((S)-3-hydroxypyrrolidin-1-yl)-1-phenylethyl)-N-methylacetamide] were, in that order, 0.012 nM and 7 nM.
For `CN(C(=O)COc1cccc2c1NCCC2)[C@H](CN1CC[C@H](O)C1)c1ccccc1` [Compound 11, N-((S)-2-((S)-3-hydroxypyrrolidin-1-yl)-1-phenylethyl)-N-methyl-2-(1,2,3,4-tetrahydroquinolin-8-yloxy)acetamide] the same measures were 0.004 nM and 1.6 nM.
Turning to `CN(C(=O)COc1ccc([N+](=O)[O-])c2cccnc12)[C@H](CN1CC[C@H](O)C1)c1ccccc1` [Compound 7, N-((S)-2-((S)-3-hydroxypyrrolidin-1-yl)-1-phenylethyl)-N-methyl-2-((5-nitroquinolin-8-yl)oxy)acetamide], the response in assay [1] was half-maximal at 0.015 nM (EC50). Moreover, the IC50 in assay [2] is 0.84 nM.
In assay [1], `CN(C(=O)COc1ccc2ccccc2n1)[C@H](CN1CC[C@H](O)C1)c1ccccc1` [Compound 1, N-((S)-2-((S)-3-hydroxypyrrolidin-1-yl)-1-phenylethyl)-N-methyl-2-(quinolin-2-yloxy)acetamide] showed an EC50 of 0.022 nM. For the same compound, the half-maximal inhibitory concentration (IC50) in assay [2] was found to be 3.5 nM.
Consider `CN(C(=O)COc1cccc2ncccc12)[C@H](CN1CC[C@H](O)C1)c1cccc(NS(C)(=O)=O)c1` [Compound 46], for which the response in assay [1] was half-maximal at 0.042 nM (EC50). In assay [2], the IC50 was found to be 9.5 nM.
As to `CN(C(=O)COc1ncc2ccc(Br)cc2n1)[C@H](CN1CC[C@H](O)C1)c1ccccc1` [Compound 28, 2-((7-bromoquinazolin-2-yl)oxy)-N-((S)-2-((S)-3-hydroxypyrrolidin-1-yl)-1-phenylethyl)-N-methylacetamide], in assay [1], the 50% effective concentration (EC50) came out at 1.42 nM. In assay [2], this compound registered a 50% inhibitory concentration (IC50) of 1490 nM.
On to `CN(C(=O)COc1ccc(NS(C)(=O)=O)c2nccnc12)[C@H](CN1CC[C@H](O)C1)c1ccccc1` [Compound 27, N-((S)-2-((S)-3-hydroxypyrrolidin-1-yl-)-1-phenylethyl)-N-methyl-2-((8-(methylsulfonamido)quinoxain-5-yl)oxy)acetamide], for which the concentration giving a half-maximal response (EC50) in assay [1] came to 2.11 nM. This compound also displayed a 50% inhibitory concentration (IC50) in assay [2] of 169 nM.
For `CN(C(=O)COc1ccnc2ccc(NS(C)(=O)=O)cc12)[C@H](CN1CC[C@H](O)C1)c1ccccc1` [Compound 4, N-((S)-2-((S)-3-hydroxypyrrolidin-1-yl)-1-phenylethyl)-N-methyl-2-((6-methylsulfonamido)quinolin-4-yloxy)acetamide] the same measures were 1.21 nM and 1500 nM.
`COC(=O)Nc1cccc([C@@H](CN2CC[C@H](O)C2)N(C)C(=O)COc2ccc3c(c2)OCO3)c1` [Compound 58, Methyl-(3-((S)-1-(2-(benzo[d][1,3]dioxol-5-yloxy)-N-methylacetamido)-2-((S)-3-hydroxypyrrolidin-1-yl)-ethyl)phenyl)carbamate] displayed a concentration giving a half-maximal response (EC50) in assay [1] of 0.098 nM. In assay [2], this compound had an IC50 of 9.8 nM.
The like results for `CN(C(=O)COc1ccc(NS(=O)(=O)N2CCCC2)c2ncccc12)[C@H](CN1CC[C@H](O)C1)c1ccccc1` [Compound 38] were, in that order, 0.95 nM and 7.4 nM.
Take `CN(C(=O)COc1ccc(NS(C)(=O)=O)c2c1NCCC2)[C@H](CN1CC[C@H](O)C1)c1ccccc1` [Compound 14, N-((S)-2-((S)-3-hydroxypyrrolidin-1-yl)-1-phenylethyl)-N-methyl-2-((5-(methylsulfonamido)-1,2,3,4-tetrahydroquinolin-8-yl)oxy)acetamide]: in assay [1], the half-maximal effective concentration (EC50) was 0.012 nM. In addition, the half-inhibitory concentration (IC50) in assay [2] amounted to 5.4 nM.
For `CN(C(=O)COc1ccc(NS(=O)(=O)N(C)C)c2ncccc12)[C@H](CN1CC[C@H](O)C1)c1ccccc1` [Compound 24, 2-((8-((N,N-dimethylsulfamoyl)amino)quinolin-5-yl)oxy)-N-((S)-2-((S)-3-hydroxypyrrolidin-1-yl)-1-phenylethyl)-N-methyl-acetamide] the same measures were 0.055 nM and 5 nM.
For `CN(C(=O)COc1ccc(NC(=N)N)c2ncccc12)[C@H](CN1CC[C@H](O)C1)c1ccccc1` [Compound 40, 2-((8-guanidinoquinolin-5-yl)oxy)-N-((S)-2-((S)-3-hydroxypyrrolidin-1-yl)-1-phenylethyl)-N-methylacetamide] the same measures were 0.007 nM and 1.1 nM.
For `CN(C(=O)COc1ccc(NC(=O)CN)c2ncccc12)[C@H](CN1CC[C@H](O)C1)c1ccccc1` [Compound 33, 2-((8-(2-aminoacetamido)quinolin-5-yl)oxy)-N-((S)-2-((S)-3-hydroxypyrrolidin-1-yl)-1-phenylethyl)-N-methylacetamide] the same measures were 0.006 nM and 8.4 nM.
In assay [1], `CN(C(=O)COc1ccc2cc(NS(C)(=O)=O)ccc2n1)[C@H](CN1CC[C@H](O)C1)c1ccccc1` [Compound 2, N-((S)-2-((S)-3-hydroxypyrrolidin-1-yl)-1-phenylethyl)-N-methyl-2-((6-methylsulfonamido)quinolin-2-yloxy)acetamide] registered an EC50 of 4.93 nM. The same compound showed an IC50 in assay [2] of 2590 nM.
The like results for `CN(C(=O)COc1nccc2ccccc12)[C@H](CN1CC[C@H](O)C1)c1ccccc1` [Compound 9, N-((S)-2-((S)-3-hydroxypyrrolidin-1-yl)-1-phenylethyl)-2-(isoquinolin-1-yloxy)-N-methylacetamide] were, in that order, 0.012 nM and 13 nM.
The like results for `CCOC(=O)COc1cccc([C@@H](CN2CC[C@H](O)C2)N(C)C(=O)COc2ccc(NS(C)(=O)=O)c3ncccc23)c1` [Compound 50] were, in that order, 0.001 nM and 221 nM.
Regarding `CN(C(=O)COc1ccc2ccoc2c1)[C@H](CN1CC[C@H](O)C1)c1cccc(NS(C)(=O)=O)c1` [Compound 56, 2-(benzofuran-6-yloxy)-N-((S)-2-((S)-3-hydroxypyrrolidin-1-yl)-1-(3-(methylsulfonamido)phenyl)ethyl)-N-methylacetamide], in assay [1], the response was half-maximal at 1.11 nM (EC50). In assay [2], this compound registered an IC50 of 88 nM.

These data come from US20170007610A1, “NOVEL HETEROBICYCLIC COMPOUNDS AS KAPPA OPIOID AGONISTS” (priority 2014, published 2017).
